# Laboratory results taken from PubChem BioAssay AID1963825 (Molecular Pharmacology Branch, DTP, NCI, 2024).
# Experiment: Anticancer human tumor 997537-175-T-J1-PDC patient-derived colon adenocarcinoma cell line growth inhibition [POLQ]
# Conditions: 997537-175-T-J1-PDC complex spheroid viability, combination with POLQ inhibitors; for IC50: curve of first compound; for viability, T/C: stronger effect = lower value
# Method in brief: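 Patient-derived tumour cells were co-cultured with HUVEC and mesenchymal stem cells as multicellular spheroids at 37 °C. They were treated with POLQ inhibitors (novobiocin, ART-558, RP6685) alone or combined with other agents. Top concentrations were at or near clinical Cmax (otherwise 10 microM; SN-38 at 1 microM), decreasing in half-log steps.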
# [1] = second compound 0.0316 µM, first compound 0.0316 µM
# [2] = second compound 0.0316 µM, first compound 0.1 µM
# [3] = second compound 0.0316 µM, first compound 0.316 µM
# [4] = second compound 0.0316 µM, first compound 1 µM
# [5] = second compound 0.0316 µM, first compound 3.16 µM
# [6] = second compound 0.0316 µM, first compound 10 µM
# [7] = second compound 0.1 µM, first compound 0.0316 µM
# [8] = second compound 0.1 µM, first compound 0.1 µM
# [9] = second compound 0.1 µM, first compound 0.316 µM
# [10] = second compound 0.1 µM, first compound 1 µM
# [11] = second compound 0.1 µM, first compound 3.16 µM
# [12] = second compound 0.1 µM, first compound 10 µM
# [13] = second compound 0.316 µM, first compound 0.0316 µM
# [14] = second compound 0.316 µM, first compound 0.1 µM
# [15] = second compound 0.316 µM, first compound 0.316 µM
# [16] = second compound 0.316 µM, first compound 1 µM
# [17] = second compound 0.316 µM, first compound 3.16 µM
# [18] = second compound 0.316 µM, first compound 10 µM
# [19] = second compound 1 µM, first compound 0.0316 µM
# [20] = second compound 1 µM, first compound 0.1 µM
# [21] = second compound 1 µM, first compound 0.316 µM
# [22] = second compound 1 µM, first compound 1 µM
# [23] = second compound 1 µM, first compound 3.16 µM
# [24] = second compound 1 µM, first compound 10 µM
# [25] = second compound 3.16 µM, first compound 0.0316 µM
# [26] = second compound 3.16 µM, first compound 0.1 µM
# [27] = second compound 3.16 µM, first compound 0.316 µM
# [28] = second compound 3.16 µM, first compound 1 µM
# [29] = second compound 3.16 µM, first compound 3.16 µM
# [30] = second compound 3.16 µM, first compound 10 µM
# [31] = second compound 10 µM, first compound 0.0316 µM
# [32] = second compound 10 µM, first compound 0.1 µM
# [33] = second compound 10 µM, first compound 0.316 µM
# [34] = second compound 10 µM, first compound 1 µM
# [35] = second compound 10 µM, first compound 3.16 µM
# [36] = second compound 10 µM, first compound 10 µM
# 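Note: luminescence signal used as a surrogate for viable cells; spheroids exposed to drugs for seven days before readout.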
compound,measurement,setting,value
CCc1cc2c(N3CCc4c(cc(Cn5ccnc5)cc4-c4cn(C)nc4C(F)(F)F)C3=O)cc(C)nc2c(OC)n1 + Nc1ccc(C#CCN(C(=O)Cc2ncc(C(F)(F)F)cc2C(F)(F)F)c2ccc(F)cc2)nn1,IC50,second compound 0.0316 µM,> 10 µM
same,IC50,second compound 0.1 µM,> 10 µM
same,IC50,second compound 0.316 µM,> 10 µM
same,IC50,second compound 1 µM,> 10 µM
same,IC50,second compound 3.16 µM,> 10 µM
same,IC50,second compound 10 µM,> 10 µM
same,"viability, T/C",[1],96%
same,"viability, T/C",[2],98.5%
same,"viability, T/C",[3],98.1%
same,"viability, T/C",[4],86.8%
same,"viability, T/C",[5],76%
same,"viability, T/C",[6],67.4%
same,"viability, T/C",[7],88.7%
same,"viability, T/C",[8],97%
same,"viability, T/C",[9],77.7%
same,"viability, T/C",[10],79.6%
same,"viability, T/C",[11],68.3%
same,"viability, T/C",[12],74.9%
same,"viability, T/C",[13],93.4%
same,"viability, T/C",[14],87.3%
same,"viability, T/C",[15],99.5%
same,"viability, T/C",[16],96.5%
same,"viability, T/C",[17],84%
same,"viability, T/C",[18],77.5%
same,"viability, T/C",[19],96.4%
same,"viability, T/C",[20],103%
same,"viability, T/C",[21],84%
same,"viability, T/C",[22],80.9%
same,"viability, T/C",[23],78.9%
same,"viability, T/C",[24],51%
same,"viability, T/C",[25],102%
same,"viability, T/C",[26],103%
same,"viability, T/C",[27],99.7%
same,"viability, T/C",[28],89.7%
same,"viability, T/C",[29],65.4%
same,"viability, T/C",[30],73.7%
same,"viability, T/C",[31],105%
same,"viability, T/C",[32],104%
same,"viability, T/C",[33],87.6%
same,"viability, T/C",[34],96.8%
same,"viability, T/C",[35],71.8%
same,"viability, T/C",[36],76.7%
CCc1cc2c(N3CCc4c(cc(Cn5ccnc5)cc4-c4cn(C)nc4C(F)(F)F)C3=O)ccnc2c(OC)n1 + Nc1ccc(C#CCN(C(=O)Cc2ncc(C(F)(F)F)cc2C(F)(F)F)c2ccc(F)cc2)nn1,IC50,second compound 0.0316 µM,> 10 µM
same,IC50,second compound 0.1 µM,> 10 µM
same,IC50,second compound 0.316 µM,> 10 µM
same,IC50,second compound 1 µM,> 10 µM
same,IC50,second compound 3.16 µM,> 10 µM
same,IC50,second compound 10 µM,> 10 µM
same,"viability, T/C",[1],89.5%
same,"viability, T/C",[2],110%
same,"viability, T/C",[3],94.7%
same,"viability, T/C",[4],97.2%
same,"viability, T/C",[5],85.9%
same,"viability, T/C",[6],57.8%
same,"viability, T/C",[7],94.6%
same,"viability, T/C",[8],98.2%
same,"viability, T/C",[9],87%
same,"viability, T/C",[10],114%
same,"viability, T/C",[11],82.1%
same,"viability, T/C",[12],63.2%
same,"viability, T/C",[13],92.4%
same,"viability, T/C",[14],93.5%
same,"viability, T/C",[15],83.5%
same,"viability, T/C",[16],94.6%
same,"viability, T/C",[17],68.4%
same,"viability, T/C",[18],61.8%
same,"viability, T/C",[19],103%
same,"viability, T/C",[20],104%
same,"viability, T/C",[21],97.3%
same,"viability, T/C",[22],77%
same,"viability, T/C",[23],77.4%
same,"viability, T/C",[24],86.9%
same,"viability, T/C",[25],97%
same,"viability, T/C",[26],76.5%
same,"viability, T/C",[27],90.5%
same,"viability, T/C",[28],91.2%
same,"viability, T/C",[29],71.6%
same,"viability, T/C",[30],64.1%
same,"viability, T/C",[31],97.4%
same,"viability, T/C",[32],96.2%
same,"viability, T/C",[33],101%
same,"viability, T/C",[34],91%
same,"viability, T/C",[35],79.5%
same,"viability, T/C",[36],75.5%
COc1cc2cc(C(=O)CCC(=O)O)sc2cc1OC + Nc1ccc(C#CCN(C(=O)Cc2ncc(C(F)(F)F)cc2C(F)(F)F)c2ccc(F)cc2)nn1,IC50,second compound 0.0316 µM,> 10 µM
same,IC50,second compound 0.1 µM,> 10 µM
same,IC50,second compound 0.316 µM,> 10 µM
same,IC50,second compound 1 µM,> 10 µM
same,IC50,second compound 3.16 µM,> 10 µM
same,IC50,second compound 10 µM,> 10 µM
same,"viability, T/C",[1],107%
same,"viability, T/C",[2],107%
same,"viability, T/C",[3],109%
same,"viability, T/C",[4],99.7%
same,"viability, T/C",[5],96.8%
same,"viability, T/C",[6],96.7%
same,"viability, T/C",[7],91.2%
same,"viability, T/C",[8],102%
same,"viability, T/C",[9],98.2%
same,"viability, T/C",[10],108%
same,"viability, T/C",[11],101%
same,"viability, T/C",[12],105%
same,"viability, T/C",[13],99.1%
same,"viability, T/C",[14],105%
same,"viability, T/C",[15],109%
same,"viability, T/C",[16],98%
same,"viability, T/C",[17],91.8%
same,"viability, T/C",[18],95.4%
same,"viability, T/C",[19],94.4%
same,"viability, T/C",[20],89.5%
same,"viability, T/C",[21],82%
same,"viability, T/C",[22],105%
same,"viability, T/C",[23],96.5%
same,"viability, T/C",[24],89.9%
same,"viability, T/C",[25],105%
same,"viability, T/C",[26],101%
same,"viability, T/C",[27],97.5%
same,"viability, T/C",[28],86.1%
same,"viability, T/C",[29],100%
same,"viability, T/C",[30],92.5%
same,"viability, T/C",[31],101%
same,"viability, T/C",[32],91.4%
same,"viability, T/C",[33],106%
same,"viability, T/C",[34],111%
same,"viability, T/C",[35],101%
same,"viability, T/C",[36],107%
